The text below walks through data of ChEMBL document CHEMBL4477158, “Constituents of Fagraea fragrans with Antimycobacterial Activity in Combination with Erythromycin” (2016).

Type in all cases: functional
Assay [1] relates to Staphylococcus aureus. The experiment in a line: Antibacterial activity against Staphylococcus aureus incubated for 16 to 18 hrs by broth microdilution assay.
Assay [2] deals with Escherichia coli. Description: Antibacterial activity against Escherichia coli incubated for 16 to 18 hrs by broth microdilution assay. On the technique in general: Broth dilution looks for growth in wells or tubes with falling amounts of substance.
For assay [3], the system named is Mycolicibacterium smegmatis. The experiment in a line: Antimycobacterial activity against Mycobacterium smegmatis incubated for 48 hrs by resazurin microplate assay. In general terms: Resazurin is reduced to fluorescent resorufin, in cell work by metabolically active cells.
Assay [4] deals with Mycolicibacterium smegmatis. Description: Potentiation of isoniazid-induced antimycobacterial activity against Mycobacterium smegmatis assessed as isoniazid MIC90 at 25 ug/ml after 48 hrs by resazurin microplate assay (reference value: 200 ug/ml).
The subject of assay [5] is Mycolicibacterium smegmatis. Description: Potentiation of rifampicin-induced antimycobacterial activity against Mycobacterium smegmatis assessed as rifampicin MIC90 at 25 ug/ml after 48 hrs by resazurin microplate assay (reference value: 8 ug/ml).
The test system of assay [6] is Mycolicibacterium smegmatis. The experiment in a line: Potentiation of kanamycin-induced antimycobacterial activity against Mycobacterium smegmatis assessed as kanamycin MIC90 at 25 ug/ml after 48 hrs by resazurin microplate assay (reference value: 2.5 ug/ml).
For assay [7], the system named is Mycolicibacterium smegmatis. The experiment in a line: Potentiation of streptomycin-induced antimycobacterial activity against Mycobacterium smegmatis assessed as streptomycin MIC90 at 25 ug/ml after 48 hrs by resazurin microplate assay (reference value: 0.25 ug/ml).
Assay [8] concerns Mycolicibacterium smegmatis. The experiment in a line: Potentiation of vancomycin-induced antimycobacterial activity against Mycobacterium smegmatis assessed as vancomycin MIC90 at 25 ug/ml after 48 hrs by resazurin microplate assay (reference value: 0.5 ug/ml).
Assay [9] relates to Mycolicibacterium smegmatis. Description: Potentiation of erythromycin-induced antimycobacterial activity against Mycobacterium smegmatis assessed as erythromycin MIC90 at 25 ug/ml after 48 hrs by resazurin microplate assay (reference value: 10 ug/ml).
Assay [10] has as its system Mycolicibacterium smegmatis. The experiment in a line: Potentiation of erythromycin-induced antimycobacterial activity against Mycobacterium smegmatis assessed as reduction in erythromycin MIC90 at 25 ug/ml after 48 hrs by resazurin microplate assay relative to control.

As a reminder, the MIC is the least concentration at which growth counts as inhibited. A high value points to a less susceptible organism. The term MIC90 denotes an inhibitory concentration at the 90% level, which refers to growth in some studies and to a panel of isolates in others.

Turning to `C/C=C1\COC(OC)C2=C1CCOC2=O` (centres undefined), the MIC in assay [1] and in assay [2] was greater than 128 µg/mL each time. In addition, the MIC90 in [3] was greater than 25 µg/mL.
As to `COc1cc(/C=C/C(=O)OCCCCCCCCCCCCCCCCCCCCCCCCCCCCCC=O)ccc1O`, the MIC in assay [1] and in assay [2] was greater than 128 µg/mL in each case. Further, the MIC90 in assay [3] is greater than 25 µg/mL; in assay [4], 100 µg/mL; in assay [5], 8 µg/mL; in assay [6], 1 µg/mL; in [7] it was 0.125 µg/mL; in [8] it was 2.5 µg/mL. Further, the MIC90 in assay [9] stood at 2.5 µg/mL.
As for `O=Cc1cccc2c(=O)occc12`, the MIC in assay [1] and in [2] was greater than 128 µg/mL each time. For the same molecule, the MIC90 in [3] is greater than 25 µg/mL; in assay [4] it was 100 µg/mL; in assay [5], 8 µg/mL; in assay [6] it was 1 µg/mL; in [7], 0.125 µg/mL; in assay [8], 2.5 µg/mL. In assay [9], the MIC90 turned out to be 1.25 µg/mL. The “fold change (FC)” value in assay [10] was 8.
Consider `C[C@H]1[C@@H]2C(=O)OCC[C@@H]2C[C@H]1O`, for which the MIC in assay [1] and in assay [2] was greater than 128 µg/mL throughout. Further, the MIC90 in assay [3] was greater than 25 µg/mL.
In the case of `O=Cc1cccc2c1[C@H]1[C@@H]3OC(=O)c4cccc(C=O)c4[C@@H]3[C@H]1OC2=O`, the MIC in assay [1] and in [2] was greater than 128 µg/mL in each case. In assay [3], the MIC90 is greater than 25 µg/mL.
For `C[C@@H]1OCC2=C(CCOC2=O)[C@@H]1CO`, the MIC in assay [1] and in assay [2] was greater than 128 µg/mL throughout. In [3], this molecule displayed an MIC90 greater than 25 µg/mL.
Regarding `C[C@@H]1OC=C2C(=O)OCC[C@H]2[C@@H]1C(=O)O`, the MIC in assay [1] and in assay [2] was greater than 128 µg/mL throughout. In assay [3], this molecule came in with an MIC90 greater than 25 µg/mL.
Turning to `C[C@@H]1Cc2cccc(O)c2C(=O)O1` [(-)-(R)-MELLEIN], the MIC in assay [1] and in [2] was greater than 128 µg/mL in each case. Moreover, the MIC90 in assay [3] is greater than 25 µg/mL; in assay [4], 100 µg/mL; in assay [5] it was 8 µg/mL; in [6], 1 µg/mL; in [7], 0.125 µg/mL; in [8], 2.5 µg/mL. Further, the MIC90 in assay [9] is 0.625 µg/mL. Moreover, in assay [10], the “fold change (FC)” value was found to be 16.
As for `C[C@@H]1OCC2=C(CCOC2=O)[C@H]1CO`, the MIC in assay [1] and in assay [2] was greater than 128 µg/mL in each case. The MIC90 was greater than 25 µg/mL in assay [3]; 100 µg/mL in [4]; 8 µg/mL in [5]; 1 µg/mL in assay [6]; 0.125 µg/mL in assay [7]; 0.125 µg/mL in assay [8]. Besides, the MIC90 in assay [9] is 1.25 µg/mL. For the same molecule, the “fold change (FC)” value in assay [10] is reported as 8.
